Data: patent US4163784A, “Heterocyclylcarbonyl derivatives of urea, agents for dissolution of gallstones” (Pfizer Inc., priority 1978, dated 1979)

How the values were obtained:
male CD-1 mice [1] = test: acute toxicity, single intraperitoneal dose; assay type: in vivo; details: 1000 mg./kg. single i.p. dose, 0.6% Tween 20, 10 mice per group, observed one week
Method: The compounds were tested for acute toxicity in the following manner. Healthy male CD-1 mice (20-25 g.), 10 mice per group, received a single high dose of drug by intraperitoneal administration (1000 mg./kg., in 0.6% Tween 20, at a concentration of 70 mg./ml.). (Tween 20, polyoxyethylene sorbitan monolaurate, available from Atlas Chemical Industries, Inc.). The animals were observed continuously for at least two hours, again at 24 hours and daily thereafter for one week. Controls received vehicle alone, […]. and were asymptomatic throughout. The compounds tested and the widely varying mortality rates observed are tabulated below.

[2] = test system: pathogenic cholelithiasis process; details: in man; cited from earlier work
male CD-1 mice [3] = test: seven-day chronic toxicity test (hepatotoxicity); assay type: in vivo; details: 500 mg./kg. daily orally in 0.1% methyl cellulose for 5 days
dogs = test: oral administration at high dose to dogs, toxicity; assay type: in vivo; details: 250 mg./kg.
rats = test: oral administration at high dose to rats, toxicity; assay type: in vivo; details: same high dose as dogs (250 mg./kg.)

SMILES | Mortality Rate (male CD-1 mice [1]) | hepatotoxicity (male CD-1 mice [3]) | also measured
CCCCN(CCCC)C(=O)NC(=O)c1cccnc1 [3-pyridyl, N-(n-C 4 H9)2] | 10/10 | – | –
C[C@H](CCC(=O)O)[C@H]1CC[C@H]2[C@@H]3[C@H](O)C[C@@H]4C[C@H](O)CC[C@]4(C)[C@H]3CC[C@]12C [chenodeoxycholic acid] | – | – | prevention and reversal of the pathogenic cholelithiasis process [2]: prevention and even reversal of the pathogenic cholelithiasis process in man
CCCCN(CCCC)C(=O)NC(=O)c1cncs1 [5-thiazolyl, N-(n-C 4 H9)2] | 4/10 | – | –
O=C(NC(=O)N1CC=CCC1)c1ccc(Cl)nc1 [6-Chloro-N-[1-(1,2,3,6-tetrahydropyridyl)carbonyl]nicotinamide] | 0/10 | produced hepatotoxicity | pathological signs in dogs (dogs): pathological signs suggestive of cardiac impairment; toxic effects in dogs: death (dogs; ten times the projected efficacious dose): death of the dogs; toxicological symptoms in rats (rats): only moderate toxicological symptoms, including lethargy, diminished appetite and weight gain, and slight abnormalities in clinical chemistry
O=C(NC(=O)N1CC=CCC1)c1cccnc1 [3-pyridyl, 1-(1,2,3,6-tetrahydropyridyl)] | 9/10 | – | –
O=C(NCc1ccccc1)NC(=O)c1cccnc1Cl [2-chloro-N-(benzylaminocarbonyl)nicotinamide] | 0/10 | no hepatotoxicity | –
